For test [1], the system named is DS male mice. In words: Taming activity (inhibition of fighting responses). Format: in vivo. To be noted: given 60 minutes prior; inhibition of electroshock-induced fighting responses, 5 pairs of mice. The procedure: This test was measured on DS male mice. […] These pairs of mice were selected in the morning and used for drug test in the afternoon. The test compound was administered to both mice of the pairs 60 minutes prior to the experiment. Results were obtained as the mean percentage of inhibition of fighting responses in a group of 5 pairs and shown by ED50 [Tedeschi, et al.: J. Pharmacol Exp. Thev., 125, 28-34 (1959)].

For test [2], the system named is DS male mice. In words: Rotarod performance activity. Format: in vivo. Particulars: fall from rod (5 rotations per minute) within less than 2 minutes; 10 mice per dose. The procedure:
(3) Rotarod performance activity
This test was measured on DS male mice. The mouse was put on a scraped rod of wood, 3 cm in diameter, turning at the rate of five rotations per minute. The mice that could remain on the rod for three or more minutes in successive trials were selected and placed in a group of 10 mice for each dose. If the mouse fell down from the rod within less than 2 minutes, the test compound was considered to be effective. Results were shown by ED50 [Dunham, et al.: J. Am. Pharm. Assoc., 46, 208 (1957)].
(Falling from the rotarod earlier than controls is read as motor impairment.)

Turning to `CN(C(=O)CNC(=O)CN)c1ccc(Cl)cc1C(=O)c1ccccc1Cl.O` [Compound No. 2, 2-o-chlorobenzoyl-4-chloro-N-methyl-N^α -glycyl-glycinanilide hydrate], the “Taming activity ED50” value in the test on DS male mice [1] was determined as 3.0 mg/kg.

As to `CN(C(=O)CNC(=O)CN)c1ccc(Cl)cc1C(=O)c1ccccc1F.Cl` [Compound No. 3, 2-o-fluorobenzoyl-4-chloro-N-methyl-N^α -glycyl-glycinanilide hydrochloride], the “Taming activity ED50” value in the test on DS male mice [1] is reported as 1.6 mg/kg. Moreover, in the test with DS male mice [2], the “Rotarod performance ED50” value was 17.0 mg/kg.
